{
  "source": "the NIST ThermoML archive (doi:10.1016/j.jct.2019.01.027)",
  "details": "Liquid, Ebulliometric method (Recirculating still)",
  "note": "Numbers after ± are expanded uncertainties.",
  "data": [
    {"compound": "Cc1ccc(C)cc1", "note": "[1,4-dimethylbenzene]", "values": [
      {"measurement": "vapor or sublimation pressure", "setting": "411.45 K", "value": "101.3 ± 1.2", "unit": "kPa"}
    ]},
    {"compound": "CC(=O)OCC(C)C", "note": "[2-methylpropyl ethanoate]", "values": [
      {"measurement": "vapor or sublimation pressure", "setting": "389.55 K", "value": "101.3 ± 1.2", "unit": "kPa"}
    ]},
    {"compound": "CCCCOC(=O)CC", "note": "[butyl propanoate]", "values": [
      {"measurement": "vapor or sublimation pressure", "setting": "418.35 K", "value": "101.3 ± 1.2", "unit": "kPa"}
    ]},
    {"compound": "COC(=O)OC", "note": "[dimethyl carbonate]", "values": [
      {"measurement": "vapor or sublimation pressure", "setting": "363.35 K", "value": "101.3 ± 1.2", "unit": "kPa"}
    ]},
    {"compound": "CCO", "note": "[ethanol]", "values": [
      {"measurement": "vapor or sublimation pressure", "setting": "351.45 K", "value": "101.3 ± 1.2", "unit": "kPa"}
    ]}
  ]
}
